Data published in patent publication US20030055263A1, “Carboxylic acid derivatives, medicaments comprising these compounds, their use and processes for their production” (Boehringer Ingelheim Pharma KG, priority 2001, published 2003).

Target: T1, telomerase in nuclear extracts from HeLa cells (Homo sapiens, UniProt O14746)
T1 construct: The activity of telomerase in nuclear extracts from HeLa cells; endogenous in cells; host or cells: HeLa-S3 (ATCC CCL-2.2) nuclear extract
Assay: Telomerase test in nuclear extracts from HeLa cells (method of Morin)
Assay type: biochemical
Settings: HeLa nuclear extract, 120 minutes at 30° C., inhibitor 1 nM to 100 μM, 32P-dGTP incorporation quantified by Phospho-Imager
Description: 1. Preparation of nuclear extracts from HeLa cells: Nuclear extracts were prepared according to Dignam (Dignam et al. in Nucleic Acids Res. 11, 1475-1489 (1983)). All the steps were carried out at 4° C., all the equipment and solutions were pre-cooled to 4° C. At least 1×10^9 HeLa-S3 cells growing in suspension culture (ATCC catalogue number CCL-2.2) were harvested by centrifuging for 5 minutes at 1000×g and washed once with PBS buffer ([…]; 2.7 mM KCl; 8.1 mM Na2HPO4; 1.5 mM KH2PO4) . After the cell volume had been determined, the cells were suspended in 5 times the volume of hypotonic buffer (10 mM HEPES/KOH, pH 7.8; 10 mM KCl; 1.5 mM MgCl2) and then left for 10 minutes at 4° C. After centrifuging for 5 minutes at 1000×g the cell pellet was suspended in twice the volume of hypotonic buffer in the presence of 1 mM DTE and 1 mM PMSF and broken up with a Dounce homogeniser. The homogenised material was made isotonic with 0.1 volume of 10-fold saline buffer (300 mM HEPES/KOH, pH 7.8; 1.4 M KCl; 30 mM MgCl2). The cell nuclei were separated from the ingredients of the cytoplasm by centrifuging and then suspended in twice the volume of nuclear extraction buffer (20 mM HEPES/KOH, pH 7.9; 420 mM KCl; 1.5 mM MgCl2; 0.2 mM EDTA; 0.5 mM DTE; 25% glycerol). The nuclei were broken up using a Dounce homogeniser and incubated for 30 minutes at 4° C. with gentle stirring. Any insoluble ingredients were removed by centrifuging for 30 minutes at 10.000 rpm (SS-34 Rotor). Then the nuclear extract was dialysed for 4-5 hours against AM-100 buffer (20 mM tris/HCl, pH 7.9; 100 mM KCl; 0.1 mM EDTA; 0.5 mM DTE; 20% glycerol). The nuclear extracts obtained were frozen in liquid nitrogen and stored at −80° C.
2. Telomerase test: The activity of telomerase in nuclear extracts from HeLa cells was determined using the method described by Morin (Morin in Cell 59. 521-529 (1989)). […] If the inhibition constant of potential telomerase inhibitors was to be determined, these were also added to the telomerase reaction in a concentration range of from 1 nM to 100 μM. […]

T1 sequence (O14746 whole entry): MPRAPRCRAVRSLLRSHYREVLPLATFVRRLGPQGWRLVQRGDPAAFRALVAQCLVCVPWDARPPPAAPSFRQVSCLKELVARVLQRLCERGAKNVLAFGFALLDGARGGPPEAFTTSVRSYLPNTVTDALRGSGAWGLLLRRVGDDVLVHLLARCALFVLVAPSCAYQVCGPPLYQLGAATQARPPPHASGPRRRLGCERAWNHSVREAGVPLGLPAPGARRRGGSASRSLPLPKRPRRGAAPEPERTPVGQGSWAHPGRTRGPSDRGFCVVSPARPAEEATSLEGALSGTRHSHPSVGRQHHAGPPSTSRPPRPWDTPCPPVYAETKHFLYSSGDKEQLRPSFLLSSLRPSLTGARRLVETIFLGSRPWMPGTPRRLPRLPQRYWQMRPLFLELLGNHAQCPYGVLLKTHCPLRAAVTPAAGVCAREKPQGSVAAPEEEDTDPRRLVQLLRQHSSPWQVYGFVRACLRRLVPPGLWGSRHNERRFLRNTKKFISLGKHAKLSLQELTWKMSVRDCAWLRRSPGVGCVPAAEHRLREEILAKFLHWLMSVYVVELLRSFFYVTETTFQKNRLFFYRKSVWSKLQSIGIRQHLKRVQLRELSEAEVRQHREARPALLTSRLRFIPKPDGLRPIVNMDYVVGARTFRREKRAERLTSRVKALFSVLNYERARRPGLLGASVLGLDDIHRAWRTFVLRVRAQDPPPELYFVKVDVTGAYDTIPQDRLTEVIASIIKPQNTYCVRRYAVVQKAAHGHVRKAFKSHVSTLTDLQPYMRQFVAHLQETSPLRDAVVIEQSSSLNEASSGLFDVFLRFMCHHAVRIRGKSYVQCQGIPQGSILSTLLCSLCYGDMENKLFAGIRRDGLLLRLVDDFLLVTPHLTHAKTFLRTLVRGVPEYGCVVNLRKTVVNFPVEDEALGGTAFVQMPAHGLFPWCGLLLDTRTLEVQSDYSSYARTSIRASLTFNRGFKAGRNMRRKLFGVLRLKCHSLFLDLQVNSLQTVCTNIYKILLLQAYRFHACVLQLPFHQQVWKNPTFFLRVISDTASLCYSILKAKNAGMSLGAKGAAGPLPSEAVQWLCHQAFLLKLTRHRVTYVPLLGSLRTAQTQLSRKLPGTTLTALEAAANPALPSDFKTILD
T1 sequence (O60832 whole entry partner): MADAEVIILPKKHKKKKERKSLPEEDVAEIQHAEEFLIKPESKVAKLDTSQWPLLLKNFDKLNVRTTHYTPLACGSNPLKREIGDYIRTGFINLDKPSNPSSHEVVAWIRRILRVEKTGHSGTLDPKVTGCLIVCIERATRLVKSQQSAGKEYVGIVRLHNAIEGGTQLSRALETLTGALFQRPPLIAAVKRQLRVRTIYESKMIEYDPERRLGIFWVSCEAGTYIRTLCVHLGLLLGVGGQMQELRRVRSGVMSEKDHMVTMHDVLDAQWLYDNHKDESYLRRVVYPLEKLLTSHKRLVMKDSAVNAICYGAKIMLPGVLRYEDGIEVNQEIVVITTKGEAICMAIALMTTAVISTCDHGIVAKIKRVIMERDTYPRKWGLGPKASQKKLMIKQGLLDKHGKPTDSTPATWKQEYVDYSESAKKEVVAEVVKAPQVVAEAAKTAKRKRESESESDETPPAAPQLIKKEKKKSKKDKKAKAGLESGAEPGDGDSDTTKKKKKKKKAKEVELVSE
T1 sequence (Q9NX24 whole entry partner): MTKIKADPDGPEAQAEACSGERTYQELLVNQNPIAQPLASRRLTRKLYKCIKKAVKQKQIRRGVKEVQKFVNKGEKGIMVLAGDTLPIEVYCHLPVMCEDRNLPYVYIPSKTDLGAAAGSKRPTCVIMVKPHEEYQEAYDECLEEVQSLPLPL
T1 sequence (Q9NPE3 whole entry partner): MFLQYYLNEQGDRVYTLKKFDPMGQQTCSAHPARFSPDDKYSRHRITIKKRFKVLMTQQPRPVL
T1 sequence (Q9NY12 whole entry partner): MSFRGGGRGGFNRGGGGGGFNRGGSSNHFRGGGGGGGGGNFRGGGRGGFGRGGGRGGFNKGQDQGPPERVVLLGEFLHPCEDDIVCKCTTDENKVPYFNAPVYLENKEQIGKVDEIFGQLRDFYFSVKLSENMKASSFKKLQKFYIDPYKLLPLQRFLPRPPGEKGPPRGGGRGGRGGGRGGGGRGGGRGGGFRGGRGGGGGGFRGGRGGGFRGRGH
T1 sequence (Q9BUR4 whole entry partner): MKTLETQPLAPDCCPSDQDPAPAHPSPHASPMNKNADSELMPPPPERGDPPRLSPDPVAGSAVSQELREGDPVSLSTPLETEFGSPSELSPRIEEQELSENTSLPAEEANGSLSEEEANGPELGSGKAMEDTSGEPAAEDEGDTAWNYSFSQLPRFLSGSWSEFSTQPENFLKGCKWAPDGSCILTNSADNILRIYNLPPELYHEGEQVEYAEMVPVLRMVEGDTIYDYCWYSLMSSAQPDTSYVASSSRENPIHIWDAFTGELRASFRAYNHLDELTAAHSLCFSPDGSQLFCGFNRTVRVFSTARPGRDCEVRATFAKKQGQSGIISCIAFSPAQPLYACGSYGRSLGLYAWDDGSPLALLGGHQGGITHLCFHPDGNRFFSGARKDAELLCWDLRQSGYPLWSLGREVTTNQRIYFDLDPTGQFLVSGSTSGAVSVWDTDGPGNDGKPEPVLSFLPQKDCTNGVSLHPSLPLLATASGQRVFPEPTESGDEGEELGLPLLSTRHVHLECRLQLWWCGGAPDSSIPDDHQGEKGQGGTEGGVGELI

SMILES	IC50 [nM]
O=C(O)c1ccccc1C(=O)Nc1nc(-c2ccc3ccccc3c2)cs1 [Example 3, 2-[4-(naphthalin-2-yl)-thiazol-2-ylaminocarbonyl]-benzoic acid]	< 5000
O=C(O)C1=C(C(=O)Nc2nc(-c3ccc4ccccc4c3)cs2)CCC1 [Example 35, 2-[4-(naphthalin-2-yl)-thiazol-2-ylaminocarbonyl]-cyclopent-1-ene-carboxylic acid]	< 1000
O=C(O)c1ccccc1Nc1nccc(-c2ccc3ccccc3c2)n1 [Example 50, 2-[4-(naphthalin-2-yl)-pyrimidin-2-ylamino]-benzoic acid]	< 1000
